“Also recorded” adds a separate entry of the source.
Legend:
E. coli sepsis in dogs [1] = test: Early Treatment Study: TAC given 1.5 h after sepsis induced, hemodynamics; type: in vivo, dog; details: for Arterial pH / HR / Hct / Lactate / Pwp / SVR: mean±SE, n=5
Description: (§1) In all of the studies outlined, the animals were randomized into treatment and nontreatment placebo groups (see below). The E. coli model used in these studies was identical to that previously described (6). Sepsis was induced by the intravenous infusion of 10^10 colony forming units of live E. coli (designation 011:B4). The bacteria were suspended in normal saline solution and were given over 0.5 hour. A constant infusion of approximately 5×10^9 colony forming units/hour of E. coli was then maintained for the remainder of the experiment.
(§2) The animals (16-24 kg) were initially anesthetized with thiopental sodium (20 mg/kg, intravenously) and constantly infused with sufentanil citrate (1 ug/min) and midazolam (5 ug/kg/min) (33). Drug rates were adjusted as required to abolish the palpebral reflex. The animals were placed in the supine position; the trachea was intubated with an endotracheal tube; and the lungs were mechanically ventilated at a tidal volume of 20 ml/kg. The ventilator rate was initially set to maintain blood pH at approximately 7.35 and was increased as necessary to reverse the metabolic acidosis that developed over the course of the study. Approximately 100% oxygen was inspired, so that hypoxemia would not affect the results of the study.
(§3) Under sterile conditions, the right jugular vein was percutaneously cannulated with an introducer (Arrow International, Reading, Pa.). A thermister tipped catheter was advanced from the jugular vein into the pulmonary artery to measure mean pulmonary arterial pressure (Ppa), mean pulmonary capillary wedge pressure (Pwp), mean right atrial pressure (Pra), thermodilution cardiac output (CO, Columbus Instruments, OH), and to obtain mixed venous oxygen blood samples. Another introducer was placed into the left jugular vein for administration of intravenous saline solution and the treatment or placebo drug (see below). A polyethylene catheter was also percutaneously placed into the femoral artery to measure mean blood pressure (MAP), and to obtain samples of blood for blood gas analysis, blood hematocrit (Hct), lactate concentrations, and blood cultures in some cases. Lactate was measured by an automated lactate dehydrogenase based assay (34) and was performed only in ETS and LTS because of equipment difficulties in the Pretreatment Study.
(§4) All catheters were connected to transducers (Cobe Laboratories), were referenced relative to the left atrium and were connected to a chart recorder (Astro-Med, W Warwick, R.I.). Heart rate (HR) was measured from the recorder tracing. Stroke-volume (SV) was calculated as CO/HR. Systemic vascular resistance (SVR) was calculated from [(MAP-Pra)/CO]×80. At each measurement interval (see below), a full set of measurements included MAP, CO, Ppa, Pra, Pwp, Hct, HR, SV, and arterial and mixed venous blood samples.
(§5) In the analysis, stroke work (SW) was the primary index of cardiac performance and the primary hemodynamic endpoint chosen in the in vivo studies (35,18) (see Discussion). At constant preload, SW reflects both the decreases in afterload and the changes in contractile function that accompany sepsis. SW was determined at approximately the same Pwp at each measurement interval. The baseline Pwp usually averaged ≈8-10 mmHg, and normal saline solution was given as necessary to maintain Pwp constant over the experimental period. SW was calculated from SV (MAP-Pwp).
Early Treatment Study. The purpose of this study was to assess the effect of TAC when treatment was administered during sepsis, but before myocardial depression developed. Treatment was administered at 1.5 hours after bacteremia was begun (6). Based on the lack of response of some animals in the LTS, the initial dose of TAC was increased to 400 mg, and followed by 50 mg/h mixed in 50 cc D5W over the remainder of the study. The placebo group received an identical amount of D5W over the course of the study.

Datura stramonium lectin = test: Inhibition by TAC of lectin-induced depression of isometric tension in right ventricular trabecular preparation; type: cell-based, dog; details: TAC 10^−4M pre-treatment
Description: After baseline tension was determined, either the lectin or placebo was placed into respective organ baths. The concentrations of the lectins used were 10^−8M, 10^−7M, and 10^−6M based on the concentration of lysozyme found in sepsis that averaged approximately 10^−8M. In the case of Datura stramonium lectin, moreover, the effect of TAC on inhibiting the myocardial depression caused by this lectin was also examined. […] Measurements were obtained at 5 minute intervals. The changes in isometric tension measured from baseline were compared between the lectin treated and placebo preparations.
Lectins are nonenzymatic proteins that bind to carbohydrates and can be classified by their specificity for a particular sugar or polysaccharide (42). […] After baseline tension was determined, either the lectin or placebo (i.e. KH) was placed into respective organ baths in which the concentrations of the lectins used were similar to those described for Lzm-S. In the case of DSL, moreover, it was assessed whether TAC could also prevent the depression caused by this lectin.

E. coli sepsis in dogs [2] = test: Late Treatment Study: TAC given after 3.5 h of sepsis, hemodynamics; type: in vivo, dog; details: for Arterial pH / HR / Hct / Lactate / Pwp / SVR: mean±SE, n=5
Description: as §1, §2, §3, §4, §5
Late Treatment Study. In LTS, the objective was to see if TAC would reverse myocardial depression once it had already been produced. TAC was administered after 3.5 hours after the initiation of bacteria and was given over a 0.5 hour in 200 ml D5W. Because it was also noted in the in vitro trabecular preparation that once lysozyme was already placed into the bath, a higher concentration of TAC was required to inhibit the effect of lysozyme, the initial dose was increased to 250 mg in LTC. […]

[3] = Late Treatment Study, 2 h posttreatment (6 h post-sepsis)
[4] = Late Treatment Study, 3.5 h post sepsis, before TAC
[5] = Late Treatment Study, immediately after TAC infusion

## CC(=O)N[C@H]1[C@H](O[C@H]2[C@H](O)[C@@H](NC(C)=O)C(O)O[C@@H]2CO)O[C@H](CO)[C@@H](O[C@@H]2O[C@H](CO)[C@@H](O)[C@H](O)[C@H]2NC(C)=O)[C@@H]1O (some centres unmarked) [TAC, N,N′,N″ triacetylglucosamine]
E. coli sepsis in dogs [1]; 6 h
  CO over the course of sepsis: increased over the course of sepsis as compared with the nontreated group; also recorded: significant increases
  SV over the course of sepsis: showed a similar finding
E. coli sepsis in dogs [1]; 6 h after sepsis initiated
  Arterial pH: 7.24 ± .03
  HR: 94 ± 8 beats/min
  Hct: 30 ± 4%
  Lactate: 1 ± .1 mM
  Pwp: 10.9 ± 1 mmHg
  SVR: 1792 ± 233 dynes s cm^−5
E. coli sepsis in dogs [1]; baseline
  Arterial pH: 7.23 ± .03
  HR: 68 ± 9 beats/min
  Hct: 31 ± 2%
  Lactate: 1 ± .1 mM
  Pwp: 10 ± .5 mmHg
  SVR: 2160 ± 581 dynes s cm^−5
E. coli sepsis in dogs [1]; treatment group
  MAP over the 6 hrs of sepsis: increased in 4 of the 5 dogs
Datura stramonium lectin
  Effect of TAC on myocardial depression caused by Datura stramonium lectin: markedly attenuated; also recorded: could be reversed by pre-treatment with TAC; also recorded: blocked the isometric depression
E. coli sepsis in dogs [2]; Late Treatment Study
  SW once myocardial depression was observed: little effect of treatment on SW
E. coli sepsis in dogs [2]; Late Treatment Study (FIG. 11)
  Hemodynamics: no effect
E. coli sepsis in dogs [2]; [3]
  Arterial pH: 7.20 ± .04
  HR: 90 ± 9 beats/min
  Hct: 29 ± 6%
  Lactate: 1.3 ± .4 mM
  Pwp: 10 ± 1.6 mmHg
  SVR: 1280 ± 182 dynes s cm^−5
E. coli sepsis in dogs [2]; [4]
  Arterial pH: 7.24 ± .05
  HR: 113 ± 9 beats/min
  Hct: 26 ± 5%
  Pwp: 9.8 ± 1 mmHg
  SVR: 1200 ± 262 dynes s cm^−5
E. coli sepsis in dogs [2]; Late Treatment Study, baseline
  Arterial pH: 7.34 ± .015
  HR: 60 ± 4 beats/min
  Hct: 34 ± 2%
  Lactate: .9 ± .2 mM
  Pwp: 9.4 ± 1 mmHg
  SVR: 2437 ± 343 dynes s cm^−5
E. coli sepsis in dogs [2]; [5]
  Arterial pH: 7.20 ± .04
  HR: 96 ± 8 beats/min
  Hct: 27 ± 5%
  Lactate: 1.3 ± .2 mM
  Pwp: 10.5 ± 1.4 mmHg
  SVR: 1268 ± 196 dynes s cm^−5
